# Paper PMC2806525, “Proteinase-activated receptor-2 mediated inhibition of TNFα-stimulated JNK activation — A novel paradigm for Gq/11 linked GPCRs” (Cellular Signalling, 2010)
# Entries after “also recorded” stand apart in the source; their conditions may differ.
# Tests used:
# p38 MAP kinase = conditions: higher concentrations, ref [37]; cited from earlier work
# Source text: Whilst this present study focuses on two agonist effects it is the first study to raise this potential when examining JNK activation. This model was also supported when examining the effect of the novel PAR2 antagonist K-14585 [33]. […] Taken together, these findings indicate two distinct agonist-directed signalling pathways driven by SLIGKV-OH, one dependent upon ...
# human PAR2 [1] = target: T1, human PAR2 (Homo sapiens, UniProt P55085); assay: Reversal by PAR2 antagonist of SLIGKV-OH-mediated inhibition of TNFα-stimulated JNK, PAR2 NCTC2544 cells; type: cell-based; conditions: 10 μM K14585 30 min, SLIGKV-OH 100 μM 30 min, then TNFα
# T1 construct: expressed in transfected cells
# T1 sequence (P55085 26-397): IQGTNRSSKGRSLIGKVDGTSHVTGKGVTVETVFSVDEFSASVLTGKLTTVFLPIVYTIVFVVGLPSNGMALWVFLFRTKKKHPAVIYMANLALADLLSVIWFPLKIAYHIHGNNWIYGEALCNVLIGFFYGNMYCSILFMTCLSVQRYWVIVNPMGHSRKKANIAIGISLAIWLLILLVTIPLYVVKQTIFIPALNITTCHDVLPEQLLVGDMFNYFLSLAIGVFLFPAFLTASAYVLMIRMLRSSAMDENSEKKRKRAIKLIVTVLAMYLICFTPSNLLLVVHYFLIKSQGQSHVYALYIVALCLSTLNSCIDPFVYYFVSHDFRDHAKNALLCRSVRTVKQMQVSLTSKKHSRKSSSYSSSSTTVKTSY
# Procedure: (§1) Human skin epithelial cells NCTC2544 were maintained in M199 medium with Earl's salt supplement, 10% (v/v) foetal calf serum, L-glutamine (27 µg/ml), penicillin (250 U/ml), and streptomycin (25 mg/ml). NCTC2544 cells stably expressing human PAR2 (clone G) were maintained in complete M199 medium containing 400 μg/ml of Geneticin for selection pressure and passaged using Versene (2% EDTA/PBS). EAhy-926 cells were produced by hybridizing human umbilical vein endothelial cells (HUVECs) with the epithelial cell line A549 [27] and maintained in Dulbecco's Modified Eagle's Medium (DMEM) supplemented with 10% foetal calf serum (FCS), hypoxanthine/aminopterin/thymidine (HAT supplement), penicillin (250 U/ml) and streptomycin (25 mg/ml), and cells were passaged using Versene.
# (§2) To measure JNK activity, cells were stimulated as appropriate and the reaction terminated by rapid aspiration and the addition of ice-cold PBS. The cells were solubilised in 20 mM HEPES buffer, pH 7.7, containing 50 mM NaCl, 0.1 mM EDTA, 0.1 mM Na3VO4, 0.1 mM PMSF, 10 mg/ml aprotinin, 10 mg/ml leupeptin, and 1% (w/v) Triton X-100. Lysates were clarified by centrifugation for 5 min at 13,000 rpm and equal amounts of protein were incubated with 20 μg of GST-c-Jun-(5–89) immobilized on glutathione-Sepharose at 4 °C for 3 h. Beads were then washed three times in solubilisation buffer and twice in 25 mM HEPES buffer, pH 7.6, containing 20 mM β-glycerophosphate, 0.1 mM NaV3O4, and 2 mM dithiothreitol. Precipitates were then incubated with the same buffer containing 25 μM/0.5 μCi of ATP/[γ-^32P] ATP in a final volume of 30 µl at 30 °C for 30 min. The reactions were terminated by the addition of 4× SDS-sample buffer and aliquots of each sample subjected to electrophoresis on 11% SDS-polyacrylamide gel electrophoresis. Phosphorylation of GST-c-Jun was then determined by autoradiography.
# Fig. 3 Inhibition of TNFα-stimulated JNK activity is dependent upon PAR2 activation. […] Samples were assessed for JNK activity or phospho-JNK content as outlined in the Methods section. […]
# human PAR2 [2] = target: T1, human PAR2; assay: JNK activity, agent alone, PAR2 NCTC2544 cells (clone G); type: cell-based; conditions: higher concentrations, alone; not shown
# Procedure: as §1
# To measure JNK activity, cells were stimulated as appropriate and the reaction terminated by rapid aspiration and the addition of ice-cold PBS. The cells were solubilised in 20 mM HEPES buffer, pH 7.7, containing 50 mM NaCl, 0.1 mM EDTA, 0.1 mM Na3VO4, 0.1 mM PMSF, 10 mg/ml aprotinin, 10 mg/ml leupeptin, and 1% (w/v) Triton X-100. Lysates were clarified by centrifugation for 5 min at 13,000 rpm and equal amounts of protein were incubated with 20 μg of GST-c-Jun-(5–89) immobilized on glutathione-Sepharose at 4 °C for 3 h. […] Phosphorylation of GST-c-Jun was then determined by autoradiography. […]
# Fig. 4 Concentration response effects of PAR2 peptides for activation of JNK and inhibition of TNFα-stimulated JNK. PAR2 expressing NCTC2544 cells (clone G) were incubated with increasing concentrations of SLIGKV-OH or 2f-LIGKV-OH for 30 min and assayed for JNK activity (Panel B) or stimulated for a further 30 min with TNFα (+) before JNK activity was assessed (Panel A). Samples were assessed for JNK activity as outlined in the Methods section. Gels from JNK assays were quantified (Panel C). Each value represents the mean ± s.e.m from at least 4 experiments and data was quantified by densitometry.
# TNFR1/TRADD = TNFR1/TRADD complex formation (TNFR1 immuno-precipitation, TRADD immuno-blot), PAR2 expressing cells; type: cell-based, human; conditions: 100 nM YM254890 or 3 μM GF109203X 30 min, peptide 100 μM 30 min, TNFα 10 ng/ml 30 min
# Procedure: as §1
# Proteins were separated by 10% SDS–PAGE and transferred onto nitrocellulose. The membranes were blocked for non-specific binding for 2 h in 2% BSA (w/v) diluted in NATT buffer (50 mM Tris–HCl, 150 mM NaCl, 0.2% (v/v) Tween-20). The blots were then incubated overnight with 50 ng/ml primary antibody diluted in 0.2% BSA (w/v) in NATT buffer. The blots were washed with NATT buffer for 90 min and incubated with HRP-conjugated secondary antibody (20 ng/ml in 0.2% BSA (w/v) diluted in NATT buffer) for 2 h. After a further 90 min wash, the blots were subjected to ECL reagent and exposed to Kodak X-ray film.
# For immuno-precipitation of TNFR1, equal amounts of pre-cleared cell lysates were incubated in Tris–HCl buffer, pH 7.4, containing 50 mM NaCl, 1 mM EDTA, 1 mM EGTA, 1% (w/v) Triton X-100, and 0.5% (w/v) Nonidet P-40, with 2 μg TNFR1 antibody, pre-coupled to protein G, for 3 h. Lysates were recovered by sequential washes in solubilisation buffer and in the same buffer lacking detergents. Precipitates were assessed for TRADD or RIP content using Western blotting.
# Fig. 7 PAR2 mediated TNFR1 adapter protein disruption in PAR2 expressing cells. In Panel A, cells were pre-treated with peptide (100 μM) or vehicle prior to stimulation with TNFα (10 ng/ml) for 30 min. Lysates were immuno-precipitated for TNFR1 and immuno-blotted for TRADD and/or RIP, as outlined in the Methods section. In Panel B cells were pre-treated with 100 nM YM254890 or 3 μM GF109203X for 30 min prior to pre-treatment with peptide (100 μM), for 30 min, then incubated for a further 30 min with TNFα (10 ng/ml). TNFR1 immuno-precipitates were immuno-blotted for TRADD. Each gel is representative of at least three experiments.
# Gq/11 [3] = assay: Reversal by Gq/11 inhibitor of PAR2 mediated inhibition of TNFα-stimulated JNK activity, PAR2 NCTC2544 cells; type: cell-based, human; conditions: increasing concentrations YM254890 30 min, SLIGKV-OH 100 μM 30 min, TNFα 10 ng/ml 30 min
# Procedure: as §1
# To measure JNK activity, cells were stimulated as appropriate and the reaction terminated by rapid aspiration and the addition of ice-cold PBS. […] Phosphorylation of GST-c-Jun was then determined by autoradiography. […]
# (§3) Fig. 6 Gq/11 is essential for PAR2 mediated inhibition of JNK activation by TNFα. […] Samples were assessed for phospho-JNK levels (Panels A and D) or JNK activity (Panel B) as outlined in the Methods section. Gels from JNK activity assays were quantified by densitometry (Panel C). […]
# Gq/11 [4] = conditions: ref [29]; cited from earlier work
# Source text: Thus, DAG derived from Gq/11 activation is likely to drive PKC activation and subsequent inhibition of TNFα stimulated JNK activity. Previously, we have shown that Gq/11 plays a positive role in the regulation of PAR2 mediated NFκB p ...
# Gq/11 [5] = assay: Reversal by Gq/11 inhibitor of PAR2 mediated inhibition of TNFα-stimulated JNK phosphorylation, PAR2 NCTC2544 cells; type: cell-based, human; conditions: 100 nM YM254890 30 min, SLIGKV-OH 100 μM 30 min, TNFα 10 ng/ml 30 min
# Procedure: as §1
# Proteins were separated by 10% SDS–PAGE and transferred onto nitrocellulose. The membranes were blocked for non-specific binding for 2 h in 2% BSA (w/v) diluted in NATT buffer (50 mM Tris–HCl, 150 mM NaCl, 0.2% (v/v) Tween-20). The blots were then incubated overnight with 50 ng/ml primary antibody diluted in 0.2% BSA (w/v) in NATT buffer. […]
# as §3
# PKC [6] = assay: TNFα-stimulated JNK phosphorylation, PKC activator / PKC inhibitor, PAR2 NCTC2544 cells; type: cell-based, human; conditions: 100 nM PMA
# Procedure: as §1
# Proteins were separated by 10% SDS–PAGE and transferred onto nitrocellulose. The membranes were blocked for non-specific binding for 2 h in 2% BSA (w/v) diluted in NATT buffer (50 mM Tris–HCl, 150 mM NaCl, 0.2% (v/v) Tween-20). […]
# Fig. 5 Pharmacological blockade of protein kinase C reverses PAR2 mediated inhibition of TNFα-stimulated JNK activation. […] Samples were assessed for JNK activity (Panels A and B) or phospho-JNK levels (Panel D) as outlined in the Methods section. Gels from JNK activity assays were quantified by densitometry (Panel C). […]
# TNFR1 = conditions: ref [42,50]; cited from earlier work
# Source text: Upon activation TNFR1 associates with a number of proteins including TRADD, RIP, TRAF2, MADD and FADD [46]. Formation of this complex at the membrane allows TNFα to mediate an array of different signalling events, such as induction of apoptosis through the FADD-caspase arm or activation of MAP kinase and NFκB signalling via TRAF2. For example, TRAF2 contains a conserved C-terminal region termed the TRAF domain, which interacts with TRADD and an N-terminal ring finge ...
# PKC [7] = assay: TNFα-stimulated JNK activity, PKC activator / PKC inhibitor, PAR2 NCTC2544 cells; type: cell-based, human; conditions: 100 nM PMA 30 min, TNFα 10 ng/ml 30 min
# Procedure: as §1, §2
# Where experimental data is shown as a blot, this represents one of at least 3 experiments and data represents the mean ± s.e.m. Statistical analysis was by one-way ANOVA with Dunnett's post test (*P < 0.05, **P < 0.01).
# Fig. 5 Pharmacological blockade of protein kinase C reverses PAR2 mediated inhibition of TNFα-stimulated JNK activation. PAR2 expressing NCTC2544 cells (clone G) were pre-incubated with increasing concentrations of GF109203X (GFX) for 30 min then incubated for a further 30 min with 100 nM PMA (Panel A) or 30 nM trypsin (Panel B) prior to stimulation for a further 30 min with TNFα(+) (10 ng/ml). Samples were assessed for JNK activity (Panels A and B) or phospho-JNK levels (Panel D) as outlined in the Methods section. Gels from JNK activity assays were quantified by densitometry (Panel C). Each value represents the mean ± s.e.m from at least 4 experiments. ⁎⁎P < 0.01 compared to TNFα and trypsin stimulated.
compound,measurement,setting,value
NCCCC[C@H](NC(=O)CNC(=O)Nc1ccc2c(c1)c(CN1CCCC1)cn2Cc1c(Cl)cccc1Cl)C(=O)N[C@@H](Cc1ccccc1)C(=O)NC(c1ccccc1)c1ccccc1 [K-14585],p38 MAP kinase activation by K14585 alone,p38 MAP kinase,able to activate both JNK (not shown) and p38 MAP kinase
same,reversal of SLIGKV-OH-mediated JNK inhibition (words),human PAR2 [1],able to reverse the inhibition of JNK; also recorded: able to reverse PAR2 mediated inhibition of TNFα signalling
same,reversal of SLIGKV-OH-mediated JNK inhibition (words),human PAR2 [1]; listed as K14585,inhibition was reversed by pre-incubation
same,reversal of SLIGKV-OH-mediated JNK inhibition (words),human PAR2 [1]; listed as K14858,reversed
same,JNK activation by K14585 alone,human PAR2 [2],able to activate both JNK
YM254890,reversal of PAR2 mediated disruption of TNFR1/TRADD complex,TNFR1/TRADD,effectively reversed PAR2 mediated disruption
same,reversal of PAR2 mediated disruption of TNFR1/TRADD complex,TNFR1/TRADD; listed as YM25480,reversed
same,reversal of PAR2 mediated inhibition of JNK activity by Gq/11 inhibitor,Gq/11 [3],almost complete abrogation of peptide mediated inhibition; also recorded: complete reversal of PAR2 mediated JNK inhibition
same,reversal of PAR2 mediated inhibition of JNK activity by Gq/11 inhibitor,Gq/11 [3]; listed as YM25480,reversed PAR2 mediated inhibition
same,inhibition of trypsin and peptide mediated [^3H]IP accumulation,Gq/11 [4],very effective inhibitor
same,reversal of PAR2 mediated inhibition of JNK phosphorylation by Gq/11 inhibitor,Gq/11 [5],almost complete abrogation of peptide mediated inhibition of TNFα stimulated JNK phosphorylation
CCCCCCCCCCCCCC(=O)O[C@@H]1[C@@H](C)[C@@]2(O)[C@@H](C=C(CO)C[C@]3(O)C(=O)C(C)=C[C@@H]23)[C@@H]2C(C)(C)[C@]12OC(C)=O [PMA],effect of PKC activator on TNFα-stimulated JNK phosphorylation,PKC [6],abolishing both JNK activity and phosphorylation
same,disruption of TNFR1 binding,TNFR1,disrupt TNFR1 binding
same,effect of PKC activator on TNFα-stimulated JNK activity,PKC [7],mimicked the inhibitory effect of SLIGKV-OH; also recorded: mimic the inhibitory effect of PAR2 activation; also recorded: abolishing both JNK activity and phosphorylation
